Laboratory results taken from PubChem BioAssay (NCI).
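Method: 48-hour compound exposure of cells in 96-well plates, five concentrations, linear interpolation of endpoints. TGI: total growth inhibition.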

Tests used:
Assay in all cases: NCI anticancer screen, dose series, 48 h
KM12 colon = system: KM12 colon
TK-10 renal = system: TK-10 renal
COLO 205 colon = system: COLO 205 colon
LOX IMVI melanoma = system: LOX IMVI melanoma
SNB-75 CNS = system: SNB-75 CNS
NCI-H460 lung = system: NCI-H460 lung
RPMI-8226 leukemia = system: RPMI-8226 leukemia
HS 578T breast = system: HS 578T breast
PC-3 prostate = system: PC-3 prostate
DU-145 prostate = system: DU-145 prostate
OVCAR-3 ovarian = system: OVCAR-3 ovarian
EKVX NSCLC = system: EKVX NSCLC
MCF7 breast = system: MCF7 breast
SW-620 colon = system: SW-620 colon
HL-60(TB) leukemia = system: HL-60(TB) leukemia
NCI-H226 lung = system: NCI-H226 lung
HCT-116 colon = system: HCT-116 colon
HT29 colon = system: HT29 colon
OVCAR-8 ovarian = system: OVCAR-8 ovarian
IGROV1 ovarian = system: IGROV1 ovarian
SF-295 CNS = system: SF-295 CNS
SF-268 CNS = system: SF-268 CNS
M14 melanoma = system: M14 melanoma
A549 NSCLC = system: A549 NSCLC
UACC-62 melanoma = system: UACC-62 melanoma
MOLT-4 leukemia = system: MOLT-4 leukemia
SF-539 CNS = system: SF-539 CNS
MDA-MB-435 = system: MDA-MB-435
HOP-62 NSCLC = system: HOP-62 NSCLC
NCI-H522 lung = system: NCI-H522 lung
MALME-3M melanoma = system: MALME-3M melanoma
SK-MEL-5 melanoma = system: SK-MEL-5 melanoma
K-562 leukemia = system: K-562 leukemia
SN12C renal = system: SN12C renal
T-47D breast = system: T-47D breast
UO-31 renal = system: UO-31 renal
NCI/ADR-RES ovarian = system: NCI/ADR-RES ovarian
SR leukemia = system: SR leukemia
SK-MEL-28 melanoma = system: SK-MEL-28 melanoma
ACHN renal = system: ACHN renal
786-0 renal = system: 786-0 renal
UACC-257 melanoma = system: UACC-257 melanoma
HOP-92 NSCLC = system: HOP-92 NSCLC
MDA-N = system: MDA-N
A498 renal = system: A498 renal
CCRF-CEM leukemia = system: CCRF-CEM leukemia
CAKI-1 renal = system: CAKI-1 renal
MDA-MB-231 breast = system: MDA-MB-231 breast
HCC-2998 colon = system: HCC-2998 colon
OVCAR-4 ovarian = system: OVCAR-4 ovarian
OVCAR-5 ovarian = system: OVCAR-5 ovarian
NCI-H23 lung = system: NCI-H23 lung
SNB-19 CNS = system: SNB-19 CNS
SK-OV-3 ovarian = system: SK-OV-3 ovarian
RXF 393 renal = system: RXF 393 renal
SK-MEL-2 melanoma = system: SK-MEL-2 melanoma
U251 CNS = system: U251 CNS
HCT-15 colon = system: HCT-15 colon

## CC(CO)CCNc1ncnc2c1ncn2CCC#N (stereo unspecified)
KM12 colon
  TGI: > 100 µM
TK-10 renal
  TGI: > 100 µM
COLO 205 colon
  TGI: > 100 µM
LOX IMVI melanoma
  TGI: > 100 µM
SNB-75 CNS
  TGI: > 100 µM
NCI-H460 lung
  TGI: > 100 µM
RPMI-8226 leukemia
  TGI: > 100 µM
HS 578T breast
  TGI: > 100 µM
PC-3 prostate
  TGI: > 100 µM
DU-145 prostate
  TGI: > 100 µM
OVCAR-3 ovarian
  TGI: > 100 µM
EKVX NSCLC
  TGI: > 100 µM
MCF7 breast
  TGI: > 100 µM
SW-620 colon
  TGI: > 100 µM
HL-60(TB) leukemia
  TGI: > 100 µM
NCI-H226 lung
  TGI: > 100 µM
HCT-116 colon
  TGI: > 100 µM
HT29 colon
  TGI: > 100 µM
OVCAR-8 ovarian
  TGI: > 100 µM
IGROV1 ovarian
  TGI: > 100 µM
SF-295 CNS
  TGI: > 100 µM
SF-268 CNS
  TGI: > 100 µM
M14 melanoma
  TGI: > 100 µM
A549 NSCLC
  TGI: > 100 µM
UACC-62 melanoma
  TGI: > 100 µM
MOLT-4 leukemia
  TGI: > 100 µM
SF-539 CNS
  TGI: > 100 µM
MDA-MB-435
  TGI: > 100 µM
HOP-62 NSCLC
  TGI: > 100 µM
NCI-H522 lung
  TGI: > 100 µM
MALME-3M melanoma
  TGI: > 100 µM
SK-MEL-5 melanoma
  TGI: > 100 µM
K-562 leukemia
  TGI: > 100 µM
SN12C renal
  TGI: > 100 µM
T-47D breast
  TGI: > 100 µM
UO-31 renal
  TGI: > 100 µM
NCI/ADR-RES ovarian
  TGI: > 100 µM
SR leukemia
  TGI: > 100 µM
SK-MEL-28 melanoma
  TGI: > 100 µM
ACHN renal
  TGI: > 100 µM
786-0 renal
  TGI: > 100 µM
UACC-257 melanoma
  TGI: > 100 µM
HOP-92 NSCLC
  TGI: > 100 µM
MDA-N
  TGI: > 100 µM
A498 renal
  TGI: > 100 µM
CCRF-CEM leukemia
  TGI: > 100 µM
CAKI-1 renal
  TGI: > 100 µM
MDA-MB-231 breast
  TGI: > 100 µM
HCC-2998 colon
  TGI: > 100 µM
OVCAR-4 ovarian
  TGI: > 100 µM
OVCAR-5 ovarian
  TGI: > 100 µM
NCI-H23 lung
  TGI: > 100 µM
SNB-19 CNS
  TGI: > 100 µM
SK-OV-3 ovarian
  TGI: > 100 µM
RXF 393 renal
  TGI: > 100 µM

## C[C@@H](c1ccccc1)C(CC#N)[C@H]1CCC[C@]1(O)C#Cc1ccc2c(c1)OCO2 (stereo partly specified)
SK-MEL-2 melanoma
  TGI: 32.7 µM
KM12 colon
  TGI: 31.6 µM
TK-10 renal
  TGI: 29.6 µM
COLO 205 colon
  TGI: 33.1 µM
LOX IMVI melanoma
  TGI: 39.5 µM
SNB-75 CNS
  TGI: 32 µM
NCI-H460 lung
  TGI: 31.3 µM
RPMI-8226 leukemia
  TGI: 62.5 µM
HS 578T breast
  TGI: 43.7 µM
PC-3 prostate
  TGI: 31.1 µM
DU-145 prostate
  TGI: 31.6 µM
OVCAR-3 ovarian
  TGI: 29.2 µM
EKVX NSCLC
  TGI: 35.4 µM
MCF7 breast
  TGI: 41.3 µM
SW-620 colon
  TGI: 33.2 µM
HL-60(TB) leukemia
  TGI: 43.8 µM
NCI-H226 lung
  TGI: 33.1 µM
HT29 colon
  TGI: 28.9 µM
OVCAR-8 ovarian
  TGI: 32.7 µM
IGROV1 ovarian
  TGI: 33.9 µM
SF-295 CNS
  TGI: 32.4 µM
SF-268 CNS
  TGI: 38.8 µM
M14 melanoma
  TGI: 30.9 µM
A549 NSCLC
  TGI: 29.8 µM
UACC-62 melanoma
  TGI: 32.7 µM
MOLT-4 leukemia
  TGI: 25.2 µM
SF-539 CNS
  TGI: 24.1 µM
MDA-MB-435
  TGI: 31.3 µM
HOP-62 NSCLC
  TGI: 31.3 µM
NCI-H522 lung
  TGI: 32.4 µM
MALME-3M melanoma
  TGI: 33.8 µM
SK-MEL-5 melanoma
  TGI: 32.8 µM
U251 CNS
  TGI: 32.1 µM
K-562 leukemia
  TGI: 47.8 µM
T-47D breast
  TGI: 32 µM
UO-31 renal
  TGI: 27.7 µM
NCI/ADR-RES ovarian
  TGI: 33.8 µM
HCT-15 colon
  TGI: 32.3 µM
SR leukemia
  TGI: 46.6 µM
SK-MEL-28 melanoma
  TGI: 30.1 µM
ACHN renal
  TGI: 30.8 µM
786-0 renal
  TGI: 31.3 µM
UACC-257 melanoma
  TGI: 34.6 µM
HOP-92 NSCLC
  TGI: 28.4 µM
MDA-N
  TGI: 30.4 µM
A498 renal
  TGI: 34.9 µM
CCRF-CEM leukemia
  TGI: 35.5 µM
CAKI-1 renal
  TGI: 30.8 µM
MDA-MB-231 breast
  TGI: 33.7 µM
HCC-2998 colon
  TGI: 30.3 µM
OVCAR-4 ovarian
  TGI: 32.6 µM
OVCAR-5 ovarian
  TGI: 30.8 µM
NCI-H23 lung
  TGI: 35.5 µM
SNB-19 CNS
  TGI: 29.8 µM
SK-OV-3 ovarian
  TGI: 34.6 µM
RXF 393 renal
  TGI: 28.6 µM
